The record followed here is publication PMC8698721, “Exploration of the Structure–Function Relationships of a Novel Frog Skin Secretion-Derived Bioactive Peptide, t-DPH1, through Use of Rational Design, Cationicity Enhancement and In Vitro Studies” (Antibiotics, 2021).

The subject of one data set is S. aureus (ATCC 6538). In kind it is cell-based, Staphylococcus aureus. Particulars: ATCC 6538, 24 h. As to the method:
(§1) To assess the antimicrobial activity of t-DPH1 and its designed analogues, MIC and MBC assays were conducted. Seven microorganism strains were used in the assay: Gram-positive bacteria S. aureus (ATCC 6538), E. faecalis (NCTC 12697) and MRSA (NCTC 12493); Gram-negative bacteria E. coli (ATCC 8739), P. aeruginosa (ATCC 9027) and K. pneumoniae (ATCC 43816); yeast, C. albicans (ATCC 10231).
(§2) For MIC assay, the microorganisms were initially incubated in Mueller-Hinton broth (MHB) (for bacteria) or yeast extract peptone dextrose broth (YPD-B) (for yeast) overnight and sub-cultured to achieve their respective logarithmic growth phases (5 × 10^5 CFU/mL). Then, 99 μL of each microorganism and 1 μL of the tested peptide solution were incubated in a 96-well plate. The final on-plate peptide concentrations were from 1 to 512 μM. Except for the peptide group, four other groups were set when conducting this experiment, including a negative control group (PBS), a vehicle control group (1% DMSO), a positive control group (bacteria: 20 μg/mL norfloxacin; yeast: amphotericin B) and a blank control group (MHB or YPD-B with no microorganism culture). Thus, the MIC value represents the lowest concentration of peptides at which no visible growth of the microorganism after 24 h incubation. For the MBC assay, 10 μL of the medium from each clear well was inoculated onto a Mueller–Hinton agar (MHA) (for bacteria) or yeast extract peptone dextrose agar (YPD-A) (for yeast) plate and incubated for 24 h for measurement MBC values.

Data set [1] relates to K. pneumoniae (ATCC 43816). In kind it is cell-based, Klebsiella pneumoniae. The settings on record: ATCC 43816, 24 h. As for the experimental part:
as §1, §2

For a further data set, the system named is C. albicans (ATCC 10231). Type of data set: cell-based, Candida albicans. Particulars: ATCC 10231, 24 h. As for the experimental part: as §1, §2
The subject of data set [2] is PC-3 (human prostate carcinoma cancer cell line). In kind it is cell-based. Particulars: 24 h. As to the method: (§3) The MTT assay was conducted to verify the proliferation inhibitory effect of t-DPH1 and its analogues. Human cancer cell lines (NCI-H838 (ATCC® CRL-5844, human non-small cell lung cancer)), (NCI-H157(ATCC® CRL-5802, human non-small cell lung cancer cell line)), (U251MG (ECACC 09063001, human neuronal glioblastoma cancer cell line)), (PC-3 (ATCC® CRL-1435TM, human prostate carcinoma cancer cell line)) and normal human cell lines (HMEC-1(ATCC®-CRL-3243, human microvascular endothelial cell line)) and (HaCaT (ATCC®-PCS-200-011, human keratinocyte cell)) were purchased from the American Type Culture Collection (ATCC, Manassas, VA, USA) and the European Collection of Cell Cultures (ECACC, Sallisbury, UK) for this assay. For the MTT assay, 8000 cells/per well were seeded in the 96-well plate for 24 h. Subsequently, experiment groups were dosed with fresh serum-free medium containing different concentrations of peptides (100 μM to 10 nM) in 3 replicates. Negative control groups and positive control groups were dosed with the fresh serum-free medium containing equal amounts of PBS, and 0.1% (w/v) Triton X-100, respectively. Then the 96-well plate was incubated at 37 °C with 5% CO2 for 24 h. After, ten microliters of MTT solution (5 mg/mL) (Sigma-Aldrich UK Ltd., Gillingham, UK) were added to each well and incubated in a dark environment for two hours. Then, the solution in each well was removed and 100 μL of DMSO were added and then the plate was shaken for 10 min on a shaking incubator before detecting the OD value by use of a Synergy HT plate reader (BioTek, Minneapolis, MN, USA) at λ = 570 nm.

In data set [3] the test system is HMEC-1 (human microvascular endothelial cell line). In kind it is cell-based. Particulars: 24 h. As for the experimental part:
as §3

Data set [4] has as its system U251MG (human neuronal glioblastoma cancer cell line). In kind it is cell-based. The settings on record: 24 h. As for the experimental part:
as §3

In data set [5] the test system is HaCaT (human keratinocyte cell). Type of data set: cell-based. The settings on record: 24 h. As to the method:
as §3

For data set [6], the system named is NCI-H157 (human non-small cell lung cancer cell line). Type of data set: cell-based. The settings on record: 24 h. As to the method: as §3
In data set [7] the test system is NCI-H838 (human non-small cell lung cancer). Type of data set: cell-based. Particulars: 24 h. As to the method: as §3
Data set [8] concerns PC-3, H838, H157 and U251MG cancer cell lines. In kind it is cell-based, human. The settings on record: 24 h. As to the method: as §3, with “Then the 96-well plate was incubated at 37 °C with 5% CO2 for 24 h. After, ten microliters of MTT solution (5 mg/mL) (Sigma-Aldrich UK Ltd., Gillingham, UK) were added to each well and incubated in a dark environment for two hours.” left out

The next data set has as its system E. coli (ATCC 8739). In kind it is cell-based, Escherichia coli. The settings on record: ATCC 8739, 24 h. As to the method: as §1, §2
For data set [9], the system named is P. aeruginosa (ATCC 9027). Type of data set: cell-based, Pseudomonas aeruginosa. The settings on record: ATCC 9027, 24 h. As to the method: as §1, §2
For a further data set, the system named is horse red blood cells. In kind it is cell-based. As to the method: The haemolysis assay was performed by mixing 2% (v/v) fresh defibrinated horse blood (TCS Biosciences Ltd., Buckingham, UK) with peptides in different concentrations. Before the test, horse blood was rinsed with PBS three to four times until the supernatant was clear. Next, peptide solutions (from 100 μM to 1 nM) were incubated with the suspension of red blood cells at 37 °C for two hours. The blood cells treated with 1% Triton-X 100 were used as the positive control, and the blood cells treated with PBS were used as the negative control. After incubation, 100 μL of the supernatant from each sample were transferred to a new 96-well plate, and the OD value of each well was measured with a Synergy HT plate reader (BioTek, Minneapolis, MN, USA) with the absorbance set to 570 nm.

Data set [10] relates to Methicillin-resistant Staphylococcus aureus (MRSA) (NCTC 12493). In kind it is cell-based. Particulars: NCTC 12493, 24 h. As to the method: as §1, §2
Data set [11] relates to Enterococcus faecalis (E. faecalis) (NCTC 12697). In kind it is cell-based. The settings on record: NCTC 12697, 24 h. As to the method: as §1, §2

pIC50: −log10 of the molar value. ≈ marks a conversion by molar mass, not a printed value. Where a SMILES comes first, the peptide text is derived from it.

Consider `CC[C@H](C)[C@H](NC(=O)[C@H](CCCCN)NC(=O)[C@H](CO)NC(=O)[C@H](Cc1c[nH]c2ccccc12)NC(=O)[C@H](CC(C)C)NC(=O)CN)C(=O)N[C@@H](CCCCN)C(=O)N[C@@H](CC(N)=O)C(=O)N[C@H](C(=O)N[C@@H](C)C(=O)N[C@@H](C)C(=O)N[C@@H](C)C(=O)N[C@@H](C)C(=O)NCC(=O)N[C@@H](CCCCN)C(=O)N[C@@H](C)C(=O)N[C@@H](C)C(=O)N[C@@H](CC(C)C)C(=O)NCC(=O)N[C@@H](C)C(=O)N[C@@H](CC(C)C)C(N)=O)C(C)C` [t-DPH1] (H-GLWSKIKNVAAAAGKAALGAL-NH2), for which the MBC was determined as 16 µM (≈ 32.2 µg/mL) against S. aureus (ATCC 6538); 16 µM (≈ 32.2 µg/mL) in [1]; 128 µM (≈ 257 µg/mL) against C. albicans (ATCC 10231); 4 µM (≈ 8.04 µg/mL) with E. coli (ATCC 8739); 32 µM (≈ 64.3 µg/mL) in [9]; 32 µM (≈ 64.3 µg/mL) in data set [10]. For the same compound, the MBC in data set [11] turned out to be 256 µM (≈ 514 µg/mL). The MIC with S. aureus (ATCC 6538) worked out at 8 µM (≈ 16.1 µg/mL); in data set [1], 8 µM (≈ 16.1 µg/mL); with C. albicans (ATCC 10231) it was 64 µM (≈ 129 µg/mL); in the data set on E. coli (ATCC 8739), 2 µM (≈ 4.02 µg/mL); in data set [9], 16 µM (≈ 32.2 µg/mL); in [10] it was 16 µM (≈ 32.2 µg/mL). This compound also gave an MIC in [11] of 128 µM (≈ 257 µg/mL). The pIC50 in [2] is 4.83; in data set [4], 4.47; in [6], 4.99; in data set [7], 4.63; in data set [8], 4.47 to 4.99. For the same compound, in data set [3], the “IC50 against HMEC-1” value was 29.85 µM. For the same compound, the “IC50 against HaCaT” value in [5] was determined as 175.6 µM. Moreover, in the data set with horse red blood cells (100 µM), the haemolysis entry is reported as “over 50%”. Moreover, the HC50 in the data set with horse red blood cells (red cells of horse) was found to be 106.4 µM.

Usually MIC stands for the lowest concentration found to suppress growth. Low values mean a more susceptible organism, high ones a less susceptible organism. In general, pIC50 refers to the IC50 on a negative log10 scale, so that one unit is a factor of ten. A word on the HC50: it is the concentration that lyses half of the red blood cells.
